Test results: patent US6869957B1, “Non-peptide tachykinin receptor antagonists” (Eli Lilly and Company, priority 1993, dated 2005)

Tests used:
human NK-2 receptor = target: T1, human NK-2 receptor (Homo sapiens, UniProt P21452); experiment: NK-2 Receptor Binding Assay ([125I]iodohistidyl-neurokinin A, CHO-hNK-2R membranes); details: inhibits fifty percent of binding of [125I]iodohistidyl-neurokinin A to CHO-hNK-2R membranes
T1 construct: expressed in transfected cells; host or cells: CHO-hNK-2R cells (CHO-derived), membrane preparation
T1 sequence (P21452 1-398): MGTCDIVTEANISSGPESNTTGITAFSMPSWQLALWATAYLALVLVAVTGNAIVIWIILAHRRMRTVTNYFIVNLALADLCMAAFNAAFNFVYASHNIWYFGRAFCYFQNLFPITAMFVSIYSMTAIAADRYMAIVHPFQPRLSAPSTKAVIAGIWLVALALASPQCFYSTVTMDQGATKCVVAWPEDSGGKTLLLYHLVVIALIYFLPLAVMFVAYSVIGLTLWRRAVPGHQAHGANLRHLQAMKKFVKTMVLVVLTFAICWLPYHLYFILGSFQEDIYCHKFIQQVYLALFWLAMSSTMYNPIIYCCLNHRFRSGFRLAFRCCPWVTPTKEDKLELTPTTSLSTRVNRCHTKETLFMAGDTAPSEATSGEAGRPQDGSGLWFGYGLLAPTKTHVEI
How it was run: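 Membranes from CHO cells stably expressing human NK-2 receptor (~400,000/cell), 40 μg protein per sample, in 50 mM Tris pH 7.4 with 3 mM MnCl2, 0.02% BSA, 4 μg/ml chymostatin. Displacement of 20 pM [125I]iodohistidyl-neurokinin A, 1 hr at room temperature; GF/B filtration, gamma counting. Non-specific binding defined with 1 μM eledoisin.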

NK-1 receptor = target: T2, NK-1 receptor (Homo sapiens, UniProt P25103); experiment: NK-1 Receptor Binding Assay (125I-labeled substance P, IM9 cells); details: @ 1 μM
T2 construct: endogenous in cells; host or cells: IM9 cells (human cell line), whole cells
T2 sequence (P25103 whole entry): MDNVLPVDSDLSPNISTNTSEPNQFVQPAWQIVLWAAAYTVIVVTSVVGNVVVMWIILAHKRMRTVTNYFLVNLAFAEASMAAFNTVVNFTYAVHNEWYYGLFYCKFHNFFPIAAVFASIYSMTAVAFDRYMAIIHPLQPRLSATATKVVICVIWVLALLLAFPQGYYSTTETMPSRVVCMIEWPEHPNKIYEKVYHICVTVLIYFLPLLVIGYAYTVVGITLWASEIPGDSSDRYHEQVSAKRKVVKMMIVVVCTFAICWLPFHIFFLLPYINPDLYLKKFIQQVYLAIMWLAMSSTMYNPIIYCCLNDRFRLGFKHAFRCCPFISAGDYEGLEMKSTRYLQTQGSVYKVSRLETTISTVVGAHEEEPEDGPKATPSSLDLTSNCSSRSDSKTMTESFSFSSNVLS
How it was run: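 Radioligand binding on human IM9 cells, ended by filtration over glass fiber filters presoaked in 0.1% polyethylenimine. Specific binding of labeled substance P defined with 20 nM unlabeled ligand.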

For `CC(=O)N(CC(Cc1c[nH]c2ccccc12)NC(=O)CN1CCN(c2ccccc2)CC1)c1ccccc1` (centres unmarked) [Example 42], the IC50 (human NK-2 receptor) was 1.2 µM and the “NK-1 percent inhibition of binding” value (NK-1 receptor) was 16% @.
